# In US20230085307A1, “PYRIDAZINONE COMPOUND AND HERBICIDE” (NISSAN CHEMICAL CORPORATION, priority 2019, published 2023):
# Key:
# late watergrass = experiment: Test Example 1: herbicidal activity, application before weed generation under submerged conditions (Table 16, symbol A); format: in vivo, late watergrass (Echinochloa oryzicola); details: amount of applied herbicide 320 g/ha
# Method in brief: (§1)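 Alluvial soil was flooded to 4 cm depth, weed seeds were sown mixed and 2.5-leaf rice seedlings were transplanted. On sowing day, the compound's emulsion, diluted in water to a set dose, was applied to the water surface. Plants grew at 25–30 °C and were scored 0–5 after three weeks.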
# wild oat [1] = experiment: Test Example 5: herbicidal effect by foliage application, plastic box (Table 20, symbol I); format: in vivo, wild oat (Avena fatua); details: foliage application, AAH 320 g/ha, evaluated three weeks after application
# Method in brief: (§2)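 Plants were sown into sterilized diluvial soil under about 1.5 cm cover and kept in a greenhouse at 25° C. to 30° C. Fourteen days on, foliage received an even spray of the diluted emulsion. Herbicidal or crop effect was judged three weeks afterwards.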
# blackgrass [2] = experiment: Test Example 5: herbicidal effect by foliage application, plastic box (Table 20, symbol J); format: in vivo, blackgrass (Alopecurus myosuroides); details: foliage application, AAH 320 g/ha, evaluated three weeks after application
# Method in brief: as §2
# Chinese sprangletop = experiment: Test Example 3: herbicidal effect by foliage application, Wagner pot (Table 18, symbol D); format: in vivo, chinese sprangletop (Leptochloa chinensis); details: amount of applied herbicide 320 g/ha
# Method in brief: (§3)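 Plants were sown in alluvial soil held under 0.1–0.5 cm standing water and grown 14 days in a greenhouse at 25–30 °C. An emulsifiable formulation, water-diluted to the set dose, was then sprayed onto the foliage, and effects were scored three weeks later using previously defined criteria.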
# oval-leafed pondweed = experiment: Test Example 1: herbicidal activity, application before weed generation under submerged conditions (Table 16, symbol C); format: in vivo, oval-leafed pondweed (Monochoria vaginalis); details: amount of applied herbicide 320 g/ha
# Method in brief: as §1
# velvetleaf [3] = experiment: Test Example 5: herbicidal effect by foliage application, plastic box (Table 20, symbol M); format: in vivo, velvetleaf (Abutilon theophrasti); details: foliage application, AAH 320 g/ha, evaluated three weeks after application
# Method in brief: as §2
# velvetleaf [4] = experiment: Test Example 4: herbicidal effect by soil treatment (Table 19, symbol M); format: in vivo, velvetleaf (Abutilon theophrasti); details: amount of applied herbicide 320 g/ha
# Method in brief: (§4)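 In this soil treatment, the formulated compound reached the seeds only through the soil: seeds were buried about 1.5 cm deep in sterilized diluvial soil, then the diluted emulsion was sprayed over the surface. After three weeks at 25° C. to 30° C. in a greenhouse, effects were graded on criteria from an earlier test.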
# Japanese bulrush = experiment: Test Example 1: herbicidal activity, application before weed generation under submerged conditions (Table 16, symbol B); format: in vivo, Japanese bulrush (Schoenoplectus juncoides); details: amount of applied herbicide 320 g/ha
# Method in brief: as §1
# false cleavers = experiment: Test Example 4: herbicidal effect by soil treatment (Table 19, symbol Q); format: in vivo, false cleavers (Galium spurium); details: amount of applied herbicide 320 g/ha
# Method in brief: as §4
# persian speedwell [5] = experiment: Test Example 5: herbicidal effect by foliage application, plastic box (Table 20, symbol R); format: in vivo, Persian speedwell (Veronica persica); details: foliage application, AAH 320 g/ha, evaluated three weeks after application
# Method in brief: as §2
# rice flat sedge = experiment: Test Example 3: herbicidal effect by foliage application, Wagner pot (Table 18, symbol E); format: in vivo, rice flat sedge (Cyperus iria); details: amount of applied herbicide 320 g/ha
# Method in brief: as §3
# wild oat [6] = experiment: Test Example 4: herbicidal effect by soil treatment (Table 19, symbol I); format: in vivo, wild oat (Avena fatua); details: amount of applied herbicide 320 g/ha
# Method in brief: as §4
# barnyard grass [7] = experiment: Test Example 5: herbicidal effect by foliage application, plastic box (Table 20, symbol H); format: in vivo, barnyard grass (Echinochloa crus-galli); details: foliage application, AAH 320 g/ha, evaluated three weeks after application
# Method in brief: as §2
# persian speedwell [8] = experiment: Test Example 4: herbicidal effect by soil treatment (Table 19, symbol R); format: in vivo, Persian speedwell (Veronica persica); details: amount of applied herbicide 320 g/ha
# Method in brief: as §4
# redroot pigweed [9] = experiment: Test Example 4: herbicidal effect by soil treatment (Table 19, symbol N); format: in vivo, redroot pigweed (Amaranthus retroflexus); details: amount of applied herbicide 320 g/ha
# Method in brief: as §4
# green foxtail [10] = experiment: Test Example 4: herbicidal effect by soil treatment (Table 19, symbol G); format: in vivo, green foxtail (Setaria viridis); details: amount of applied herbicide 320 g/ha
# Method in brief: as §4
# southern crabgrass [11] = experiment: Test Example 5: herbicidal effect by foliage application, plastic box (Table 20, symbol F); format: in vivo, southern crabgrass (Digitaria ciliaris); details: foliage application, AAH 320 g/ha, evaluated three weeks after application
# Method in brief: as §2
# lambsquarters [12] = experiment: Test Example 4: herbicidal effect by soil treatment (Table 19, symbol O); format: in vivo, lambsquarters (Chenopodium album); details: amount of applied herbicide 320 g/ha
# Method in brief: as §4
# Italian ryegrass [13] = experiment: Test Example 4: herbicidal effect by soil treatment (Table 19, symbol K); format: in vivo, Italian ryegrass (Lolium multiflorum); details: amount of applied herbicide 320 g/ha
# Method in brief: as §4
# green foxtail [14] = experiment: Test Example 5: herbicidal effect by foliage application, plastic box (Table 20, symbol G); format: in vivo, green foxtail (Setaria viridis); details: foliage application, AAH 320 g/ha, evaluated three weeks after application
# Method in brief: as §2
# windgrass [15] = experiment: Test Example 4: herbicidal effect by soil treatment (Table 19, symbol L); format: in vivo, windgrass (Apera spica-venti); details: amount of applied herbicide 320 g/ha
# Method in brief: as §4
# Italian ryegrass [16] = experiment: Test Example 5: herbicidal effect by foliage application, plastic box (Table 20, symbol K); format: in vivo, Italian ryegrass (Lolium multiflorum); details: foliage application, AAH 320 g/ha, evaluated three weeks after application
# Method in brief: as §2
# southern crabgrass [17] = experiment: Test Example 4: herbicidal effect by soil treatment (Table 19, symbol F); format: in vivo, southern crabgrass (Digitaria ciliaris); details: amount of applied herbicide 320 g/ha
# Method in brief: as §4
# barnyard grass [18] = experiment: Test Example 4: herbicidal effect by soil treatment (Table 19, symbol H); format: in vivo, barnyard grass (Echinochloa crus-galli); details: amount of applied herbicide 320 g/ha
# Method in brief: as §4
# redroot pigweed [19] = experiment: Test Example 5: herbicidal effect by foliage application, plastic box (Table 20, symbol N); format: in vivo, redroot pigweed (Amaranthus retroflexus); details: foliage application, AAH 320 g/ha, evaluated three weeks after application
# Method in brief: as §2
# blackgrass [20] = experiment: Test Example 4: herbicidal effect by soil treatment (Table 19, symbol J); format: in vivo, blackgrass (Alopecurus myosuroides); details: amount of applied herbicide 320 g/ha
# Method in brief: as §4
# chickweed [21] = experiment: Test Example 5: herbicidal effect by foliage application, plastic box (Table 20, symbol P); format: in vivo, common chickweed (Stellaria media); details: foliage application, AAH 320 g/ha, evaluated three weeks after application
# Method in brief: as §2
# chickweed [22] = experiment: Test Example 4: herbicidal effect by soil treatment (Table 19, symbol P); format: in vivo, common chickweed (Stellaria media); details: amount of applied herbicide 320 g/ha
# Method in brief: as §4
# windgrass [23] = experiment: Test Example 5: herbicidal effect by foliage application, plastic box (Table 20, symbol L); format: in vivo, windgrass (Apera spica-venti); details: foliage application, AAH 320 g/ha, evaluated three weeks after application
# Method in brief: as §2
# lambsquarters [24] = experiment: Test Example 5: herbicidal effect by foliage application, plastic box (Table 20, symbol O); format: in vivo, lambsquarters (Chenopodium album); details: foliage application, AAH 320 g/ha, evaluated three weeks after application
# Method in brief: as §2
structure (smiles),measurement,setting,value
CCn1nc(C)c(O)c(-c2c(-c3ccc(F)cc3)sc3ccc(F)cc23)c1=O [2-398],"Herbicidal effect, A: late watergrass",late watergrass,3 (Herbicidal rate of 40% or more and less than 70%)
same,"I: wild oat, herbicidal effect (criteria 0-5)",wild oat [1],0 (Herbicidal rate of 5% or less (almost no effect))
same,"J: blackgrass, herbicidal effect (criteria 0-5)",blackgrass [2],0 (Herbicidal rate of 5% or less (almost no effect))
same,herbicidal effect on D: Chinese sprangletop,Chinese sprangletop,0 (Herbicidal rate of 5% or less (almost no effect))
same,"Herbicidal effect, C: oval-leafed pondweed",oval-leafed pondweed,0 (Herbicidal rate of 5% or less (almost no effect))
same,"M: velvetleaf, herbicidal effect (criteria 0-5)",velvetleaf [3],5 (Herbicidal rate of 90% or more (almost completely withered))
same,"herbicidal effect, M: velvetleaf",velvetleaf [4],1 (Herbicidal rate of 5% or more and less than 20%)
same,"Herbicidal effect, B: Japanese bulrush",Japanese bulrush,3 (Herbicidal rate of 40% or more and less than 70%)
same,"herbicidal effect, Q: false cleavers",false cleavers,0 (Herbicidal rate of 5% or less (almost no effect))
same,"R: persian speedwell, herbicidal effect (criteria 0-5)",persian speedwell [5],5 (Herbicidal rate of 90% or more (almost completely withered))
same,herbicidal effect on E: rice flat sedge,rice flat sedge,3 (Herbicidal rate of 40% or more and less than 70%)
same,"herbicidal effect, I: wild oat",wild oat [6],0 (Herbicidal rate of 5% or less (almost no effect))
same,"H: barnyard grass, herbicidal effect (criteria 0-5)",barnyard grass [7],5 (Herbicidal rate of 90% or more (almost completely withered))
same,"herbicidal effect, R: persian speedwell",persian speedwell [8],1 (Herbicidal rate of 5% or more and less than 20%)
same,"herbicidal effect, N: redroot pigweed",redroot pigweed [9],4 (Herbicidal rate of 70% or more and less than 90%)
same,"herbicidal effect, G: green foxtail",green foxtail [10],3 (Herbicidal rate of 40% or more and less than 70%)
same,"F: southern crabgrass, herbicidal effect (criteria 0-5)",southern crabgrass [11],4 (Herbicidal rate of 70% or more and less than 90%)
same,"herbicidal effect, O: lambsquarters",lambsquarters [12],3 (Herbicidal rate of 40% or more and less than 70%)
same,"herbicidal effect, K: Italian ryegrass",Italian ryegrass [13],4 (Herbicidal rate of 70% or more and less than 90%)
same,"G: green foxtail, herbicidal effect (criteria 0-5)",green foxtail [14],4 (Herbicidal rate of 70% or more and less than 90%)
same,"herbicidal effect, L: windgrass",windgrass [15],0 (Herbicidal rate of 5% or less (almost no effect))
same,"K: Italian ryegrass, herbicidal effect (criteria 0-5)",Italian ryegrass [16],4 (Herbicidal rate of 70% or more and less than 90%)
same,"herbicidal effect, F: southern crabgrass",southern crabgrass [17],3 (Herbicidal rate of 40% or more and less than 70%)
same,"herbicidal effect, H: barnyard grass",barnyard grass [18],2 (Herbicidal rate of 20% or more and less than 40%)
same,"N: redroot pigweed, herbicidal effect (criteria 0-5)",redroot pigweed [19],5 (Herbicidal rate of 90% or more (almost completely withered))
same,"herbicidal effect, J: blackgrass",blackgrass [20],0 (Herbicidal rate of 5% or less (almost no effect))
same,"P: chickweed, herbicidal effect (criteria 0-5)",chickweed [21],5 (Herbicidal rate of 90% or more (almost completely withered))
same,"herbicidal effect, P: chickweed",chickweed [22],0 (Herbicidal rate of 5% or less (almost no effect))
same,"L: windgrass, herbicidal effect (criteria 0-5)",windgrass [23],0 (Herbicidal rate of 5% or less (almost no effect))
same,"O: lambsquarters, herbicidal effect (criteria 0-5)",lambsquarters [24],4 (Herbicidal rate of 70% or more and less than 90%)
